Experimental data published in publication PMC8245078, “Development of novel benzofuran-isatin conjugates as potential antiproliferative agents with apoptosis inducing mechanism in Colon cancer” (Journal of Enzyme Inhibition and Medicinal Chemistry, 2021).
Read-outs that look alike come from different tables or passages of the source.

Tests used:
Experiment in all cases: NCI single dose screening (10 µM)
Format in all cases: cell-based
LOX IMVI = details: Homo sapiens, read-out: GI% (cell growth inhibition percentage)
SK-MEL-2 = details: Homo sapiens
PC-3 = details: Homo sapiens
MALME-3M = details: Homo sapiens, read-out: GI% (cell growth inhibition percentage)
A549/ATCC = details: Homo sapiens
UACC-257 = details: Homo sapiens
SR = details: Homo sapiens, read-out: GI% (cell growth inhibition percentage)
SW-620 = details: Homo sapiens
HS 578 T = details: Homo sapiens, read-out: GI% (cell growth inhibition percentage)
UACC-62 = details: Homo sapiens
T-47D = details: Homo sapiens, T47D, read-out: GI% (cell growth inhibition percentage)
SK-MEL-28 = details: Homo sapiens
HCT-15 = details: Homo sapiens
SNB-19 = details: Homo sapiens
UO-31 = details: Homo sapiens
IGROV1 = details: Homo sapiens
MDA-MB-435 = details: Homo sapiens
NCI-H460 = details: Homo sapiens
HOP-92 = details: Homo sapiens
SN12C = details: Homo sapiens, read-out: GI% (cell growth inhibition percentage)
OVCAR-3 = details: Homo sapiens
786-0 = details: Homo sapiens
DU-145 = details: Homo sapiens
[1] = SK-MEL-2, Melanoma, single dose 10^−5 M, read-out: GI% (cell growth inhibition percentage)
[2] = PC-3, Prostate cancer, single dose 10^−5 M, read-out: GI% (cell growth inhibition percentage)
[3] = MALME-3M, Melanoma, single dose 10^−5 M
[4] = A549/ATCC, Non-small cell lung cancer, single dose 10^−5 M, read-out: GI% (cell growth inhibition percentage)
[5] = UACC-257, Melanoma, single dose 10^−5 M, read-out: GI% (cell growth inhibition percentage)
[6] = SW-620, Colon cancer, single dose 10^−5 M, read-out: GI% (cell growth inhibition percentage)
[7] = HS 578 T, Breast cancer, single dose 10^−5 M
[8] = UACC-62, Melanoma, single dose 10^−5 M, read-out: GI% (cell growth inhibition percentage)
[9] = T-47D, Breast cancer, single dose 10^−5 M
[10] = SK-MEL-28, Melanoma, single dose 10^−5 M, read-out: GI% (cell growth inhibition percentage)
[11] = HCT-15, Colon cancer, single dose 10^−5 M, read-out: GI% (cell growth inhibition percentage)
[12] = SNB-19, CNS cancer, single dose 10^−5 M, read-out: GI% (cell growth inhibition percentage)
[13] = UO-31, Renal cancer, single dose 10^−5 M, read-out: GI% (cell growth inhibition percentage)
[14] = IGROV-1, IGROV1, Ovarian cancer, single dose 10^−5 M, read-out: GI% (cell growth inhibition percentage)
[15] = MDA-MB-435, Melanoma, single dose 10^−5 M, read-out: GI% (cell growth inhibition percentage)
[16] = NCI-H460, Non-small cell lung cancer, single dose 10^−5 M, read-out: GI% (cell growth inhibition percentage)
[17] = HOP-92, Non-small cell lung cancer, single dose 10^−5 M, read-out: GI% (cell growth inhibition percentage)
[18] = Renal cancer, single dose 10^−5 M
[19] = OVCAR-3, Ovarian cancer, single dose 10^−5 M, read-out: GI% (cell growth inhibition percentage)
[20] = 786-0, Renal cancer, single dose 10^−5 M, read-out: GI% (cell growth inhibition percentage)
[21] = DU-145, Prostate cancer, single dose 10^−5 M, read-out: GI% (cell growth inhibition percentage)
[22] = SK-MEL-2, read-out: GI% (cell growth inhibition percentage)
[23] = PC-3, read-out: GI% (cell growth inhibition percentage)
[24] = A549, read-out: GI% (cell growth inhibition percentage)
[25] = UACC-257, read-out: GI% (cell growth inhibition percentage)
[26] = SW-620, read-out: GI% (cell growth inhibition percentage)
[27] = UACC-62, read-out: GI% (cell growth inhibition percentage)
[28] = SK-MEL-28, read-out: GI% (cell growth inhibition percentage)
[29] = HCT-15, read-out: GI% (cell growth inhibition percentage)
[30] = SNB-19, read-out: GI% (cell growth inhibition percentage)
[31] = UO-31, read-out: GI% (cell growth inhibition percentage)
[32] = IGROV-1, read-out: GI% (cell growth inhibition percentage)
[33] = MDA-MB-435, read-out: GI% (cell growth inhibition percentage)
[34] = NCI-H460, read-out: GI% (cell growth inhibition percentage)
[35] = HOP-92, read-out: GI% (cell growth inhibition percentage)
[36] = OVCAR-3, read-out: GI% (cell growth inhibition percentage)
[37] = 786-0, read-out: GI% (cell growth inhibition percentage)
[38] = DU-145, read-out: GI% (cell growth inhibition percentage)

COc1ccc2c(c1)/C(=N/NC(=O)c1oc3ccccc3c1C)C(=O)N2 [Compound 5d]
inhibition at 10 µM (LOX IMVI; Melanoma, single dose 10^−5 M): 83.7% | inhibition at 10 µM (SK-MEL-2; [1]): 29.1% | inhibition at 10 µM (PC-3; [2]): 78.2% | inhibition at 10 µM (MALME-3M; [3]): 129% | inhibition at 10 µM (A549/ATCC; [4]): 124% | inhibition at 10 µM (UACC-257; [5]): 50% | inhibition at 10 µM (SR; Leukaemia, single dose 10^−5 M): 56.5% | inhibition at 10 µM (SW-620; [6]): 64.8% | inhibition at 10 µM (HS 578 T; [7]): 74.5% | inhibition at 10 µM (UACC-62; [8]): 65.7% | inhibition at 10 µM (T-47D; [9]): 139% | inhibition at 10 µM (SK-MEL-28; [10]): 84.2% | inhibition at 10 µM (HCT-15; [11]): 50.9% | inhibition at 10 µM (SNB-19; [12]): 57.3% | inhibition at 10 µM (UO-31; [13]): 155% | inhibition at 10 µM (IGROV1; [14]): 93.7% | inhibition at 10 µM (MDA-MB-435; [15]): 61% | inhibition at 10 µM (NCI-H460; [16]): 123% | inhibition at 10 µM (HOP-92; [17]): 144% | inhibition at 10 µM (SN12C; [18]): 65.1% | inhibition at 10 µM (OVCAR-3; [19]): 166% | inhibition at 10 µM (786-0; [20]): 167% | inhibition at 10 µM (DU-145; [21]): 82.4%

CCCN1C(=O)/C(=N\NC(=O)c2oc3ccccc3c2C)c2ccccc21 [Compound 7b]
inhibition at 10 µM (LOX IMVI): < 10% | inhibition at 10 µM (SK-MEL-2; [22]): < 10% | inhibition at 10 µM (PC-3; [23]): 10.8% | inhibition at 10 µM (MALME-3M; Malme-3M): < 10% | inhibition at 10 µM (A549/ATCC; [24]): < 10% | inhibition at 10 µM (UACC-257; [25]): < 10% | inhibition at 10 µM (SR): < 10% | inhibition at 10 µM (SW-620; [26]): < 10% | inhibition at 10 µM (HS 578 T; Hs-578T): < 10% | inhibition at 10 µM (UACC-62; [27]): 16.9% | inhibition at 10 µM (T-47D): 23.8% | inhibition at 10 µM (SK-MEL-28; [28]): < 10% | inhibition at 10 µM (HCT-15; [29]): < 10% | inhibition at 10 µM (SNB-19; [30]): < 10% | inhibition at 10 µM (UO-31; [31]): 34.3% | inhibition at 10 µM (IGROV1; [32]): 42.5% | inhibition at 10 µM (MDA-MB-435; [33]): < 10% | inhibition at 10 µM (NCI-H460; [34]): 15.6% | inhibition at 10 µM (HOP-92; [35]): < 10% | inhibition at 10 µM (SN12C): < 10% | inhibition at 10 µM (OVCAR-3; [36]): < 10% | inhibition at 10 µM (786-0; [37]): < 10% | inhibition at 10 µM (DU-145; [38]): < 10%

Cc1c(C(=O)N/N=C2\C(=O)Nc3ccc(F)cc32)oc2ccccc12 [Compound 5b]
inhibition at 10 µM (LOX IMVI; Melanoma, single dose 10^−5 M): < 10% | inhibition at 10 µM (SK-MEL-2; [1]): < 10% | inhibition at 10 µM (PC-3; [2]): < 10% | inhibition at 10 µM (MALME-3M; [3]): 12.4% | inhibition at 10 µM (A549/ATCC; [4]): < 10% | inhibition at 10 µM (UACC-257; [5]): < 10% | inhibition at 10 µM (SR; Leukaemia, single dose 10^−5 M): < 10% | inhibition at 10 µM (SW-620; [6]): < 10% | inhibition at 10 µM (HS 578 T; [7]): < 10% | inhibition at 10 µM (UACC-62; [8]): 10.9% | inhibition at 10 µM (T-47D; [9]): < 10% | inhibition at 10 µM (SK-MEL-28; [10]): < 10% | inhibition at 10 µM (HCT-15; [11]): < 10% | inhibition at 10 µM (SNB-19; [12]): < 10% | inhibition at 10 µM (UO-31; [13]): 26.7% | inhibition at 10 µM (IGROV1; [14]): 33.7% | inhibition at 10 µM (MDA-MB-435; [15]): < 10% | inhibition at 10 µM (NCI-H460; [16]): < 10% | inhibition at 10 µM (HOP-92; [17]): < 10% | inhibition at 10 µM (SN12C; [18]): < 10% | inhibition at 10 µM (OVCAR-3; [19]): < 10% | inhibition at 10 µM (786-0; [20]): < 10% | inhibition at 10 µM (DU-145; [21]): < 10%

CCCN1C(=O)/C(=N\NC(=O)c2oc3ccccc3c2C)c2cc(Br)ccc21 [Compound 7g]
inhibition at 10 µM (LOX IMVI): < 10% | inhibition at 10 µM (SK-MEL-2; [22]): < 10% | inhibition at 10 µM (PC-3; [23]): < 10% | inhibition at 10 µM (MALME-3M; Malme-3M): 16% | inhibition at 10 µM (A549/ATCC; [24]): < 10% | inhibition at 10 µM (UACC-257; [25]): < 10% | inhibition at 10 µM (SR): < 10% | inhibition at 10 µM (SW-620; [26]): < 10% | inhibition at 10 µM (HS 578 T; Hs-578T): < 10% | inhibition at 10 µM (UACC-62; [27]): < 10% | inhibition at 10 µM (T-47D): < 10% | inhibition at 10 µM (SK-MEL-28; [28]): < 10% | inhibition at 10 µM (HCT-15; [29]): < 10% | inhibition at 10 µM (SNB-19; [30]): < 10% | inhibition at 10 µM (UO-31; [31]): 21.9% | inhibition at 10 µM (IGROV1; [32]): 22.4% | inhibition at 10 µM (MDA-MB-435; [33]): < 10% | inhibition at 10 µM (NCI-H460; [34]): < 10% | inhibition at 10 µM (HOP-92; [35]): < 10% | inhibition at 10 µM (SN12C): < 10% | inhibition at 10 µM (OVCAR-3; [36]): < 10% | inhibition at 10 µM (786-0; [37]): < 10% | inhibition at 10 µM (DU-145; [38]): < 10%
